Like-named read-outs stand apart in the source and are kept apart here.
Legend:
[1] = target: T1, MtEis (Mycobacterium tuberculosis, UniProt P9WFK7); conditions: cited from earlier work
[2] = target: T1, MtEis; test: Steady-state acetyltransferase assays (DTNB, absorbance at 412 nm), bisubstrate kinetic analysis; format: biochemical

T1 sequence (P9WFK7 whole entry, looked up): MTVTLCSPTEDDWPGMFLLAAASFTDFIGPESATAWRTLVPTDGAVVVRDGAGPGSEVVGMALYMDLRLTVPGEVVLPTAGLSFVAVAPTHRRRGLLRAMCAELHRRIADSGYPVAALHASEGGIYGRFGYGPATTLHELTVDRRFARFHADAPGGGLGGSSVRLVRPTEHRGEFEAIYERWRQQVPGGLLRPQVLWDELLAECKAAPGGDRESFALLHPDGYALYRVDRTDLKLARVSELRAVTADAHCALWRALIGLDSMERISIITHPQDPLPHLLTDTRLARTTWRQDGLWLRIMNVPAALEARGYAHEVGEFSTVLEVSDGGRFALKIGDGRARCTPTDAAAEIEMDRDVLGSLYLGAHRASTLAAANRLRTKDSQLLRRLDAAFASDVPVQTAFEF

Compound	extent of acetylation by MtEis [1]	k cat (microscopic rate constant of the acetylation step) ([2]; AG as substrate of MtEis, random sequential mechanism fit, Tris 50 mM, pH 8.0) [s⁻¹]	K d,AcCoA(E) lower than that for AcCoA binding to Eis from M. smegmatis ([2]; MtEis versus M. smegmatis Eis value of ref 6)	Kd ([2]; binding of AcCoA to free MtEis, read-out: K d,AcCoA(E)) [µM]	Kd ([2]; binding of AcCoA to the KAN bound enzyme, read-out: K d,AcCoA(AG•E)) [µM]	Kd ([2]; binding of AcCoA to the NEO bound enzyme, read-out: K d,AcCoA(AG•E)) [µM]	higher affinity for the AcCoA bound enzyme than KAN ([2]; NEO versus KAN, K d,AG(AcCoA•E))	Kd ([2]; binding of AG to free enzyme, from thermodynamic cycle K d,AcCoA(E) K d,AG(AcCoA•E)/K d,AcCoA(AG•E), read-out: K d,AG(E)) [µM]	Kd ([2]; binding of AG to the AcCoA bound enzyme, simultaneous fit of KAN and NEO acetylation data, read-out: K d,AG(AcCoA•E)) [µM]
kanamycin A	di-acetylated	0.68 ± 0.15							
CC(=O)SCCNC(=O)CCNC(=O)[C@H](O)C(C)(C)COP(=O)(O)OP(=O)(O)OC[C@H]1O[C@@H](n2cnc3c(N)ncnc32)[C@H](O)[C@@H]1OP(=O)(O)O [AcCoA, acetyl coenzyme A]			about 4 fold	18 ± 14	45 ± 37	111 ± 62			
NC[C@@H]1O[C@H](O[C@H]2[C@@H](O)[C@H](O[C@@H]3[C@@H](O)[C@H](N)C[C@H](N)[C@H]3O[C@H]3O[C@H](CN)[C@@H](O)[C@H](O)[C@H]3N)O[C@@H]2CO)[C@H](N)[C@@H](O)[C@@H]1O [NEO, neomycin B]	tri-acetylated						approximately 3 fold	22 ± 17	135 ± 53
